Results from paper PMC6364417, “Kinase inhibitor library screening identifies synergistic drug combinations effective in sensitive and resistant melanoma cells” (Journal of Experimental & Clinical Cancer Research : CR, 2019).

Columns and labels:
Test in all cases: Kinase inhibitor library screening, PrestoBlue cell viability, 1 or 10 μM, 72 h
[1] = test system: A375-GP cells (Dabrafenib-resistant)
Experimental: (§1) After 72 h of treatment, cell viability was assessed using the PrestoBlue Cell Viability Reagent (ThermoFisher Scientific). Measurements were performed with the CLARIOstar Monochromator microplate reader (BMG Labtech).
(§2) Kinase inhibitor library screening. […] Each cell line was treated in its sensitive form (parental), and also as 2 resistant derivatives, which were made resistant to either Vemurafenib (XP) or Dabrafenib (GP). Drugs were added at 2 different concentrations, 1 and 10 μM, for 72 h and cell viability was assessed using the PrestoBlue Cell Viability assay. Results are depicted as % viability compared to untreated cells. Each cell line was analyzed at least in duplicate. […] (XLSX 95 kb)

[2] = test system: 501Mel-XP cells (Vemurafenib-resistant); conditions: 72 h
Experimental: as §1, §2

IGR37 cells (parental) = test system: IGR37 cells (parental)
Experimental: as §1, §2

[3] = test system: IGR37-XP cells (Vemurafenib-resistant)
Experimental: as §1, §2

501Mel cells (parental) = conditions: 72 h
Experimental: as §1, §2

[4] = test system: IGR37-GP cells (Dabrafenib-resistant)
Experimental: as §1, §2

[5] = test system: 501Mel-GP cells (Dabrafenib-resistant); conditions: 72 h
Experimental: as §1, §2

A375 cells (parental) = test system: A375 cells (parental)
Experimental: as §1, §2

[6] = test system: A375-XP cells (Vemurafenib-resistant)
Experimental: as §1, §2

Structure (SMILES)	cell viability (kinase inhibitor library screening) ([1]; A375 GP, 1μΜ, 72 h)	cell viability (kinase inhibitor library screening) ([1]; A375 GP, 10μΜ, 72 h)	cell viability (kinase inhibitor library screening) ([2]; 501Mel XP, 1μΜ)	cell viability (kinase inhibitor library screening) ([2]; 501Mel XP, 10μΜ)	cell viability (kinase inhibitor library screening) (IGR37 cells (parental); IGR37 Parental, 1μΜ, 72 h)	cell viability (kinase inhibitor library screening) (IGR37 cells (parental); IGR37 Parental, 10μΜ, 72 h)	cell viability (kinase inhibitor library screening) ([3]; IGR37 XP, 1μΜ, 72 h)	cell viability (kinase inhibitor library screening) ([3]; IGR37 XP, 10μΜ, 72 h)	cell viability (kinase inhibitor library screening) (501Mel cells (parental); 501Mel Parental, 1μΜ)	cell viability (kinase inhibitor library screening) (501Mel cells (parental); 501Mel Parental, 10μΜ)	cell viability (kinase inhibitor library screening) ([4]; IGR37 GP, 1μΜ, 72 h)	cell viability (kinase inhibitor library screening) ([4]; IGR37 GP, 10μΜ, 72 h)	cell viability (kinase inhibitor library screening) ([5]; 501Mel GP, 1μΜ)	cell viability (kinase inhibitor library screening) ([5]; 501Mel GP, 10μΜ)	cell viability (kinase inhibitor library screening) (A375 cells (parental); A375 Parental, 10μΜ, 72 h)	cell viability (kinase inhibitor library screening) (A375 cells (parental); A375 Parental, 1μΜ, 72 h)	cell viability (kinase inhibitor library screening) ([6]; A375 XP, 1μΜ, 72 h)	cell viability (kinase inhibitor library screening) ([6]; A375 XP, 10μΜ, 72 h)	further results
O=C1NC(=O)/C(=C\c2ccc3nccnc3c2)S1 [AS-605240]	–	–	–	–	–	–	–	–	–	–	–	–	–	–	–	–	–	–	Cell viability in kinase inhibitor library screening, A375 GP, 1μΜ ([1]; A375 GP, 1μΜ, 72 h): 97.7; Cell viability in kinase inhibitor library screening, A375 GP, 10μΜ ([1]; A375 GP, 10μΜ, 72 h): 71.1; Cell viability in kinase inhibitor library screening, 501Mel XP, 1μΜ ([2]; 501Mel XP, 1μΜ, in %): 98.5; Cell viability in kinase inhibitor library screening, 501Mel XP, 10μΜ ([2]; 501Mel XP, 10μΜ, in %): 72.2; Cell viability in kinase inhibitor library screening, IGR37 Parental, 1μΜ (IGR37 cells (parental); IGR37 Parental, 1μΜ, 72 h, in %): 99.2; Cell viability in kinase inhibitor library screening, IGR37 Parental, 10μΜ (IGR37 cells (parental); IGR37 Parental, 10μΜ, 72 h, in %): 94.0; Cell viability in kinase inhibitor library screening, IGR37 XP, 1μΜ ([3]; IGR37 XP, 1μΜ, 72 h, in %): 98.2; Cell viability in kinase inhibitor library screening, 501Mel Parental, 1μΜ (501Mel cells (parental); 501Mel Parental, 1μΜ, in %): 104.7; Cell viability in kinase inhibitor library screening, 501Mel Parental, 10μΜ (501Mel cells (parental); 501Mel Parental, 10μΜ, in %): 92.3; Cell viability in kinase inhibitor library screening, IGR37 GP, 10μΜ ([4]; IGR37 GP, 10μΜ, 72 h): 70.4%; Cell viability in kinase inhibitor library screening, IGR37 GP, 1μΜ ([4]; IGR37 GP, 1μΜ, 72 h, in %): 91.2; Cell viability in kinase inhibitor library screening, 501Mel GP, 1μΜ ([5]; 501Mel GP, 1μΜ, in %): 107.4; Cell viability in kinase inhibitor library screening, 501Mel GP, 10μΜ ([5]; 501Mel GP, 10μΜ, in %): 73.8; Cell viability in kinase inhibitor library screening, A375 Parental, 10μΜ (A375 cells (parental); A375 Parental, 10μΜ, 72 h): 76.5; Cell viability in kinase inhibitor library screening, A375 Parental, 1μΜ (A375 cells (parental); A375 Parental, 1μΜ, 72 h): 99.1; Cell viability in kinase inhibitor library screening, A375 XP, 10μΜ ([6]; A375 XP, 10μΜ, 72 h): 81.1
C=CC(=O)Nc1ccc2ncnc(Nc3ccc(OCc4cccc(F)c4)c(Cl)c3)c2c1 [AST-1306]	–	–	–	–	–	–	–	–	–	–	–	–	–	–	–	–	–	–	viability at 1 µM ([1]; Homo sapiens, A-375, 72 h, read-out: cell viability, A375 GP, 1μΜ): 85.4%; viability at 10 µM ([1]; Homo sapiens, A-375, 72 h, read-out: cell viability, A375 GP, 10μΜ): 0.6%; viability at 1 µM ([2]; Homo sapiens, read-out: cell viability, 501Mel XP, 1μΜ): 89.2%; viability at 10 µM ([2]; Homo sapiens, read-out: cell viability, 501Mel XP, 10μΜ): -0.162%; viability at 1 µM (IGR37 cells (parental); Homo sapiens, IGR-37, 72 h, read-out: cell viability, IGR37 Parental, 1μΜ): 99.8%; viability at 10 µM (IGR37 cells (parental); Homo sapiens, IGR-37, 72 h, read-out: cell viability, IGR37 Parental, 10μΜ): 1.8%; viability at 1 µM ([3]; Homo sapiens, IGR-37, 72 h, read-out: cell viability, IGR37 XP, 1μΜ): 72.8%; viability at 10 µM ([3]; Homo sapiens, IGR-37, 72 h, read-out: cell viability, IGR37 XP, 10μΜ): 1.1%; viability at 1 µM (501Mel cells (parental); Homo sapiens, read-out: cell viability, 501Mel Parental, 1μΜ): 94.1%; viability at 10 µM (501Mel cells (parental); Homo sapiens, read-out: cell viability, 501Mel Parental, 10μΜ): 3%; viability at 1 µM ([4]; Homo sapiens, IGR-37, 72 h, read-out: cell viability, IGR37 GP, 1μΜ): 87.4%; viability at 10 µM ([4]; Homo sapiens, IGR-37, 72 h, read-out: cell viability, IGR37 GP, 10μΜ): 2.2%; viability at 1 µM ([5]; Homo sapiens, read-out: cell viability, 501Mel GP, 1μΜ): 103%; viability at 10 µM ([5]; Homo sapiens, read-out: cell viability, 501Mel GP, 10μΜ): 2.3%; viability at 1 µM (A375 cells (parental); Homo sapiens, A-375, 72 h, read-out: cell viability, A375 Parental, 1μΜ): 95%; viability at 10 µM (A375 cells (parental); Homo sapiens, A-375, 72 h, read-out: cell viability, A375 Parental, 10μΜ): 2.9%; viability at 1 µM ([6]; Homo sapiens, A-375, 72 h, read-out: cell viability, A375 XP, 1μΜ): 90.9%; viability at 10 µM ([6]; Homo sapiens, A-375, 72 h, read-out: cell viability, A375 XP, 10μΜ): 0.8%
Clc1ccc(C2(c3ccc(-c4cn[nH]c4)cc3)CCNCC2)cc1 [AT7867]	82.8%	43.6%	81.2%	0.172%	98.1%	84.9%	105.4%	42.3%	93.0%	5.4%	89.7%	78.9%	93.8%	20.5%	58.0%	97.2%	99.3%	63.1%	–
O=C(Nc1c[nH]nc1-c1nc2ccc(CN3CCOCC3)cc2[nH]1)NC1CC1 [AT9283]	32.2%	3.3%	63.4%	0.184%	90.9%	1.1%	82.7%	1.5%	67.5%	2.0%	97.8%	3.7%	72.2%	0.469%	6.2%	27.1%	38.4%	9.8%	–
